{"source": "paper PMC8585947", "about": "“Structure of Escherichia coli cytochrome bd-II type oxidase with bound aurachin D” (Nature Communications, 2021)", "key": {"[1]": {"biological_target": "T1, cytochrome bd-II oxidase subunit AppC (Escherichia coli, UniProt P26459)", "T1 construct": "bd-II oxidase (AppC, AppB, AppX), C-terminal His-tag on AppC; with AppB, AppX", "test": "duroquinol:O2 oxidoreductase activity of isolated bd-II, Clark-type oxygen electrode", "format": "biochemical"}, "[2]": {"biological_target": "cytochrome bd-II oxidase subunit AppB (Escherichia coli, UniProt P26458)", "sequence (P26458 whole entry)": "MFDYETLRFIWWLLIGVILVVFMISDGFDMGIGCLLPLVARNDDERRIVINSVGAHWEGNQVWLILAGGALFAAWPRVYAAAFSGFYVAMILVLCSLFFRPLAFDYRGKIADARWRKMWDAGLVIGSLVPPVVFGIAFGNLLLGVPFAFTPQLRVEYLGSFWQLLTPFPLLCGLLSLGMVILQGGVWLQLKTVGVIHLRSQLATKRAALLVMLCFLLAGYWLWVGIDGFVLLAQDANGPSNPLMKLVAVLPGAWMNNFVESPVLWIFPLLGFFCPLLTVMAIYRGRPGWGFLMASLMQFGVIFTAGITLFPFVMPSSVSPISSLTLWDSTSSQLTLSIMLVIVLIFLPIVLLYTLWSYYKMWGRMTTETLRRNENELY", "sequence (P26459 whole entry partner)": "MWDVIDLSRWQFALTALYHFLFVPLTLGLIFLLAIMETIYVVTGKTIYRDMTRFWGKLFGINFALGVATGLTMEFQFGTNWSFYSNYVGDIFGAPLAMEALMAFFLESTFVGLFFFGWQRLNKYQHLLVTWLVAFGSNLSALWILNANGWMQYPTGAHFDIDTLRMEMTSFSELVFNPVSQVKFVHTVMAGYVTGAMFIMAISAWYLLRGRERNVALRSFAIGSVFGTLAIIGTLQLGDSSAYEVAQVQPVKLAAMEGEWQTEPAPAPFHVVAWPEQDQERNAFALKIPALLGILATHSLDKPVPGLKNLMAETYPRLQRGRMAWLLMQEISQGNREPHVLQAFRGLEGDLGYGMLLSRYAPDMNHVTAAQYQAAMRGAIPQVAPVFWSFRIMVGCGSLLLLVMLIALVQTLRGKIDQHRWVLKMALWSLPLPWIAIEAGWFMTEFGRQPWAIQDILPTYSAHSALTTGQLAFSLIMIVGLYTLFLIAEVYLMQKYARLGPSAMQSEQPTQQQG", "sequence (P24244 whole entry partner)": "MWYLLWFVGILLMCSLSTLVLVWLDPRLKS"}, "[3]": {"biological_target": "T1, cytochrome bd-II oxidase subunit AppC", "test": "duroquinol:O2 oxidoreductase inhibition (Clark electrode)", "format": "biochemical"}, "[4]": {"biological_target": "cytochrome bd-II oxidase subunit AppC (Escherichia coli, UniProt P26459, D239N)", "sequence (P26459 whole entry, stated change not applied)": "as the sequence (P26459 whole entry partner) above", "sequence (P24244 whole entry, further chain)": "as the sequence (P24244 whole entry partner) above", "sequence (P26458 whole entry, further chain)": "as the sequence (P26458 whole entry) above", "test": "biochemical"}}, "data": [{"compound": "CC(C)=CCC/C(C)=C/CC/C(C)=C/Cc1c(C)n(O)c2ccccc2c1=O", "note": "[aurachin C]", "values": [{"measurement": "IC50", "setting": "[1]", "value": 7.1, "unit": "nM"}]}, {"compound": "COC1=C(OC)C(=O)C(C/C=C(\\C)CC/C=C(\\C)CC/C=C(\\C)CC/C=C(\\C)CC/C=C(\\C)CC/C=C(\\C)CC/C=C(\\C)CCC=C(C)C)=C(C)C1=O", "note": "[ubiquinone-8]", "values": [{"measurement": "cryo-EM structure at 3.0 Å", "setting": "[2]", "value": "cleft towards the periplasmic space filled with an extended electron density that was perfectly fitted as ubiquinone-8"}]}, {"compound": "CC(C)=CCC/C(C)=C/CC/C(C)=C\\Cc1c(C)[nH]c2ccccc2c1=O", "note": "[aurachin D]", "values": [{"measurement": "IC50", "setting": "[3]", "value": 11.1, "unit": "nM"}, {"measurement": "IC50", "setting": "[4]", "value": 60.7, "unit": "nM"}]}]}
